Measured values: article PMC5936891, “A focused library synthesis and cytotoxicity of quinones derived from the natural product bolinaquinone” (Royal Society Open Science, 2018)

What was measured:
HT29 (colon carcinoma) = experiment: MTT in vitro growth inhibition assay, HT29; type: cell-based; settings: Homo sapiens; for inhibition at 25 µM: HT-29, 25 µM of drug, 72 h, read-out: Percentage of Cell Growth Inhibition HT29; for GI50: HT-29, 72 h drug exposure
Description: (§1) With the desired bolinaquinone analogues 12–43 in hand, we examined their cytotoxicity against a panel of 11 tumour cell lines: HT29 (colon carcinoma), U87 and SJ-G2 (glioblastoma), MCF-7 (breast carcinoma), A2780 (ovarian carcinoma), H460 (lung carcinoma), A431 (skin carcinoma), Du145 (prostate carcinoma), BE2-C (neuroblastoma), MIA (pancreatic carcinoma), SMA (spontaneous murine astrocytoma) and a normal breast cell line (MCF10A). The inclusion of the MCF-10A cell line allowed a determination of a crude measure of relative toxicity while noting that the ultimate arbiter of toxicity requires in vivo evaluation. All analogues were initially screened at a 25 µM drug concentration.
(§2) Stock solutions were prepared as follows and stored at −20°C: drugs were stored as 40 mM solutions in DMSO. All cell lines were cultured in a humidified atmosphere 5% CO2 at 37°C. The cancer cell lines were maintained in Dulbecco's modified Eagle's medium (DMEM) (Trace Biosciences, Australia) supplemented with 10% fetal bovine serum, 10 mM sodium bicarbonate, penicillin (100 IU ml^−1), streptomycin (100 µg ml^−1) and glutamine (4 mM). The non-cancer MCF10A cell line was cultured in DMEM:F12 (1 : 1) cell culture media, 5% heat-inactivated horse serum, supplemented with penicillin (50 IU ml^−1), streptomycin (50 µg ml^−1), 20 mM Hepes, L-glutamine (2 mM), epidermal growth factor (20 ng ml^−1), hydrocortisone (500 ng ml^−1), cholera toxin (100 ng ml^−1) and insulin (10 ug ml^−1).
(§3) Cells in logarithmic growth were transferred to 96-well plates. Cytotoxicity was determined by plating cells in duplicate in 100 µl medium at a density of 2500–4000 cells per well. On day 0 (24 h after plating), when the cells were in logarithmic growth, 100 μl of medium with or without the test agent was added to each well. After 72 h, drug exposure growth inhibitory effects were evaluated using the MTT (3-[4,5-dimethylthiazol-2-yl]-2,5-diphenyl-tetrazolium bromide) assay and the absorbance read at 540 nm. Percentage growth inhibition was determined at a fixed drug concentration of 25 µM. A value of 100% is indicative of complete cell growth inhibition. Those analogues showing appreciable percentage growth inhibition underwent further dose–response analysis allowing for the calculation of a GI50 value. This value is the drug concentration at which cell growth is 50% inhibited based on the difference between the optical density values on day 0 and those at the end of drug exposure.

U87 (glioblastoma) = experiment: MTT in vitro growth inhibition assay, U87; type: cell-based; settings: for inhibition at 25 µM: 25 µM of drug, 72 h, read-out: Percentage of Cell Growth Inhibition U87; for GI50: 72 h drug exposure
Description: as §1, §2, §3

MCF-7 (breast carcinoma) = experiment: MTT in vitro growth inhibition assay, MCF-7; type: cell-based; settings: Homo sapiens; for inhibition at 25 µM: MCF7, 25 µM of drug, 72 h, read-out: Percentage of Cell Growth Inhibition MCF-7; for GI50: MCF7, 72 h drug exposure
Description: as §1, §2, §3

[1] = system: A2780 (ovarian carcinoma); experiment: MTT in vitro growth inhibition assay, A2780; type: cell-based; settings: Homo sapiens; for inhibition at 25 µM: 25 µM of drug, 72 h, read-out: Percentage of Cell Growth Inhibition A2780; for GI50: 72 h drug exposure
Description: as §1, §2, §3

H460 (lung carcinoma) = experiment: MTT in vitro growth inhibition assay, H460; type: cell-based; settings: Homo sapiens; for inhibition at 25 µM: NCI-H460, 25 µM of drug, 72 h, read-out: Percentage of Cell Growth Inhibition H460; for GI50: NCI-H460, 72 h drug exposure
Description: as §1, §2, §3

A431 (skin carcinoma) = experiment: MTT in vitro growth inhibition assay, A431; type: cell-based; settings: Homo sapiens; for inhibition at 25 µM: A-431, 25 µM of drug, 72 h, read-out: Percentage of Cell Growth Inhibition A431; for GI50: A-431, 72 h, 72 h drug exposure
Description: as §1, §2, §3

[2] = system: Du145 (prostate carcinoma); experiment: MTT in vitro growth inhibition assay, Du145; type: cell-based; settings: Homo sapiens; for inhibition at 25 µM: DU-145, 25 µM of drug, 72 h, read-out: Percentage of Cell Growth Inhibition Du145
Description: as §1, §2, §3

BE2-C (neuroblastoma) = experiment: MTT in vitro growth inhibition assay, BE2-C; type: cell-based; settings: Homo sapiens, BE(2)-C, 72 h; for inhibition at 25 µM: 25 µM of drug, read-out: Percentage of Cell Growth Inhibition BE2-C; for GI50: 72 h drug exposure
Description: as §1, §2, §3

SJ-G2 (glioblastoma) = experiment: MTT in vitro growth inhibition assay, SJ-G2; type: cell-based; settings: for inhibition at 25 µM: 25 µM of drug, 72 h, read-out: Percentage of Cell Growth Inhibition SJ-G2; for GI50: 72 h drug exposure
Description: as §1, §2, §3

[3] = system: MIA (pancreatic carcinoma); experiment: MTT in vitro growth inhibition assay, MIA; type: cell-based; settings: for inhibition at 25 µM: 25 µM of drug, 72 h, read-out: Percentage of Cell Growth Inhibition MIA; for GI50: 72 h drug exposure
Description: as §1, §2, §3

[4] = system: SMA (spontaneous murine astrocytoma); experiment: MTT in vitro growth inhibition assay, SMA; type: cell-based; settings: Mus musculus; for inhibition at 25 µM: 25 µM of drug, 72 h, read-out: Percentage of Cell Growth Inhibition SMA; for GI50: 72 h drug exposure
Description: as §1, §2, §3

[5] = system: MCF10A (normal breast cell line); experiment: MTT in vitro growth inhibition assay, MCF10A; type: cell-based; settings: Homo sapiens, MCF-10A; for inhibition at 25 µM: 25 µM of drug, 72 h, read-out: Percentage of Cell Growth Inhibition MCF10A; for GI50: normal breast cell line, 72 h drug exposure
Description: as §1, §2, §3

Structure (SMILES) | inhibition at 25 µM (HT29 (colon carcinoma)) [%] | inhibition at 25 µM (U87 (glioblastoma)) [%] | inhibition at 25 µM (MCF-7 (breast carcinoma)) [%] | GI50 (MCF-7 (breast carcinoma)) [µM] | inhibition at 25 µM [1] [%] | GI50 [1] [µM] | inhibition at 25 µM (H460 (lung carcinoma)) [%] | inhibition at 25 µM (A431 (skin carcinoma)) [%] | inhibition at 25 µM [2] [%] | inhibition at 25 µM (BE2-C (neuroblastoma)) [%] | GI50 (BE2-C (neuroblastoma)) [µM] | inhibition at 25 µM (SJ-G2 (glioblastoma)) [%] | GI50 (SJ-G2 (glioblastoma)) [µM] | inhibition at 25 µM [3] [%] | GI50 [3] [µM] | inhibition at 25 µM [4] [%] | GI50 [4] [µM] | inhibition at 25 µM [5] [%] | melting point [°C] | GI50 [5] [µM] | also measured
COC1=CC(=O)C(OC)=C(c2ccccc2)C1=O [compound 12, 2,5-Dimethoxy-3-phenylcyclohexa-2,5-diene-1,4-dione] | 24 ± 1 | 12 ± 2 | 40 ± 3 | 22 ± 3.4 | 75 ± 7 | 18 ± 0.7 | < 10 | 10 ± 3 | < 10 | > 100 | 10 ± 1.1 | 27 ± 6 | 27 ± 0.9 | 31 ± 5 | 29 ± 1.5 | 49 ± 8 | 29 ± 3.2 | < 10 | 122 to 124 |  | GI50 (HT29 (colon carcinoma)): 42 ± 6.2 µM; GI50 (U87 (glioblastoma)): 47 ± 2.2 µM; GI50 (H460 (lung carcinoma)): > 50 µM; GI50 (A431 (skin carcinoma)): 40 ± 4.5 µM
COC1=CC(=O)C(OC)=C(c2ccc(C)cc2)C1=O [compound 13, 2,5-Dimethoxy-3-p-tolylcyclohexa-2,5-diene-1,4-dione] | 10 ± 4 | 13 ± 4 | 23 ± 3 | 37 ± 1 | 72 ± 10 | 20 ± 1.2 | 13 ± 3 | < 10 | 13 ± 2 | > 100 | 12 ± 1.2 | 41 ± 18 | 33 ± 1.9 | < 10 | > 50 | 45 ± 9 | 33 ± 2.3 | 10 ± 5 |  | 50 ± 9.2 | GI50 (HT29 (colon carcinoma)): > 50 µM; GI50 (U87 (glioblastoma)): > 50 µM; GI50 (H460 (lung carcinoma)): > 50 µM; GI50 (A431 (skin carcinoma)): > 50 µM
COC1=CC(=O)C(OC)=C(c2ccc(O)cc2)C1=O [compound 16, 3-(4-Hydroxyphenyl)-2,5-dimethoxycyclohexa-2,5-diene-1,4-dione] | 11 ± 3 | < 10 | 15 |  | < 10 | 35 ± 1.9 | < 10 | > 100 | 21 ± 6 | < 10 | ~11 | 21 ± 9 | 43 ± 1.5 | < 10 |  |  | 50 ± 3.2 |  |  |  | 
COC1=CC(=O)C(OC)=C(c2ccc(CO)cc2)C1=O [compound 17, 3-(4-(Hydroxymethyl)phenyl)-2,5-dimethoxycyclohexa-2,5-diene-1,4-diene] | < 10 | < 10 | < 10 | 36 ± 2 | 53 ± 5 | 22 ± 0.9 | < 10 | < 10 | < 10 | > 100 | ~11 | 22 ± 4 | 33 ± 1.3 | < 10 | 37 ± 1 | 21 ± 10 | 37 ± 0.7 | < 10 | 116 to 118 | 49 | GI50 (U87 (glioblastoma)): 45 ± 2.3 µM
COC1=CC(=O)C(OC)=C(c2ccc(OC)cc2OC)C1=O [compound 20, 2,5-Dimethoxy-3-(2,4-dimethoxyphenyl)cyclohexa-2,5-diene-1,4-dione] | 15 ± 2 | 17 ± 3 | 20 ± 3 | 34 ± 3 | 48 ± 9 | 25 ± 3 | 10 ± 5 | 11 ± 4 | < 10 | > 100 | ~11 | 32 ± 6 | 31 ± 1.5 | < 10 |  | 35 ± 8 | 33 ± 3.5 | 14 ± 6 |  | 38 ± 5 | 
COC1=CC(=O)C(OC)=C(c2cccc3ccccc23)C1=O [compound 25, 2,5-dimethoxy-3-(naphthalene-1-yl)cyclohexa-2,5-diene-1,4-dione] | 16 ± 3 | 10 ± 2 | 28 ± 2 | 29 ± 2 | 66 ± 13 | 21 ± 1.3 | < 10 | 8 ± 3 | 10 ± 5 | > 100 | 8 ± 0.5 | 54 ± 19 | 22 ± 1.5 | 18 ± 4 | 42 ± 3.5 | 77 ± 3 | 20 ± 1.3 | < 10 | 134 to 137 |  | GI50 (HT29 (colon carcinoma)): 43 ± 5.5 µM; GI50 (A431 (skin carcinoma)): 47 ± 6.7 µM
COC1=CC(=O)C(OC)=C(c2ccccc2-c2ccccc2)C1=O [compound 29, 3-Biphenyl-2-yl-2,5-dimethoxycyclohexa-2,5-diene-1,4-dione] | 15 ± 1 | 14 ± 4 | 27 ± 5 | 28 ± 2.6 | 77 ± 5 | 17 ± 1.2 | 10 ± 4 | 14 ± 3 | 10 ± 2 | > 100 | 11 | 38 ± 9 | 31 ± 0.58 | < 10 |  | 72 ± 9 | 20 ± 1.7 | 21 ± 8 | 186 to 188 | 36 ± 3.8 | 
COC1=C(c2ccccc2)C(=O)C(OC)=C(c2ccccc2)C1=O [compound 30, 2,5-Dimethoxy-3,6-diphenylcyclohexa-2,5-diene-1,4-dione] | 73 ± 4 | 52 ± 5 | > 100 | 7 ± 0.98 | > 100 | 5.9 | 26 ± 8 | 59 ± 6 | 35 ± 5 | > 100 | 7 ± 0.1 | > 100 | 12 ± 0.9 | 63 ± 5 | 20 ± 2 | > 100 | 6.2 ± 0.3 | > 100 | 150 to 152 | 8.9 ± 1.6 | GI50 (HT29 (colon carcinoma)): 16 ± 1.2 µM; GI50 (U87 (glioblastoma)): 30 ± 1.8 µM; GI50 (H460 (lung carcinoma)): > 50 µM; GI50 (A431 (skin carcinoma)): > 50 µM; GI50 ([2]; DU-145, 72 h, 72 h drug exposure): > 50 µM
CCCCc1ccc(C2=C(OC)C(=O)C(c3ccc(CCCC)cc3)=C(OC)C2=O)cc1 [compound 31, 2,5-Bis(4-butylphenyl)-3,6-dimethoxycyclohexa-2,5-diene-1,4-dione] | 73 ± 3 | 53 ± 3 | 73 ± 5 |  | 55 ± 9 |  | 52 ± 9 | 75 ± 2 | 83 ± 2 | 68 ± 3 |  | 56 ± 6 |  | 72 ± 2 |  | 54 ± 4 |  | 66 ± 2 | 177 to 179 |  | 
